# Experimental data as given in patent publication US8362057B2, “Imidazolecarboxamide derivatives as fructose-1,6-bisphosphatase inhibitors, and pharmaceutical compositions comprising same” (Merck Patent Gesellschaft mit beschränkter Haftung, priority 2005, dated 2013).
# Target: T1, human liver recombinant fructose-1,6-bisphosphatase (hFBPase) (Homo sapiens, UniProt P09467)
# T1 sequence (P09467 1-338): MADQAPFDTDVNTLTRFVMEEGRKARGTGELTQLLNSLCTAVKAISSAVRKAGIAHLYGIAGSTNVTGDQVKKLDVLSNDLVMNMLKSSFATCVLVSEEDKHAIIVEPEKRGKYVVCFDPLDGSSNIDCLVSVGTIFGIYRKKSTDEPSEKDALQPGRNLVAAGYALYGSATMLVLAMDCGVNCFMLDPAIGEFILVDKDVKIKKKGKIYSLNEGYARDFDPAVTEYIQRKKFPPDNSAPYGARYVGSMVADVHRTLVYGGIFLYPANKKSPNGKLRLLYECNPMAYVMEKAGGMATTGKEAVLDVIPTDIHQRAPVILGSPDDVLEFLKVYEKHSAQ
# Assay: Inhibition of human liver recombinant fructose-1,6-bisphosphatase (spectrophotometric coupled PGI/G6PDH assay)
# Assay type: biochemical
# Settings: human liver recombinant enzyme; 0.167 mM fructose-1,6-bisphosphate, pH 7.5, room temperature, 340 nm
# Method: Method for Measuring the Inhibition of Human Liver Recombinant Fructose-1,6-bisphosphatase
# The enzymatic activity is measured by using a spectrophotometric method by means of reactions coupling the formation of the product (fructose-6-phosphate) to the reduction of NADP+ via phosphoglucoisomerase (PGI) and glucose-6-phosphate dehydrogenase (G6PDH).
# The reaction mixtures (250 μl) are prepared in 96-well plates and are composed of 20 mM triethanolamine, pH 7.5, 2 mM MgCl2, 0.1 mM EDTA, 40 mM ammonium sulfate, 0.5 mM NADP, 1 U/ml G6PDH, 1 U/ml PGI and 0.167 mM of substrate (fructose-1,6-bisphosphate).
# The inhibitors are prepared at 10^−2 M in 100% DMSO and tested at 10^−5 M (DMSO 0.1% final).
# The reactions are initiated by addition of human liver recombinant enzyme fructose-1,6-bisphosphatase (hFBPase) and monitored for 30 minutes at 340 nm, at room temperature, in a Tecan plate reader.
row,SMILES,IC50
1,"CC(C)(C)c1ccc(C(=O)Nc2[nH]c(Cc3ccc(C(=O)N4CCCC4)o3)nc2C(N)=O)cc1 [Example 8.5, 5-(4-tert-Butylbenzoylamino)-2-[5-(pyrrolidine-1-carbonyl)furan-2-yl-methyl]-1H-imidazole-4-carboxamide]",36 µM
2,"CC(C)c1cccc(C(C)C)c1NC(=O)Nc1[nH]c(Cc2ccc(C(=O)O)o2)nc1C(N)=O [Example 7.9, 5-{4-Carbamoyl-5-[3-(2,6-diisopropylphenyl)ureido]-1H-imidazol-2-yl-methyl}furan-2-carboxylic acid]",42 µM

# Results, then the compound that gave them:
row,IC50,SMILES
1,24 µM,"CCCCCc1ccc(NC(=O)Nc2[nH]c(Cc3ccc(C(=O)O)o3)nc2C(N)=O)cc1 [Example 7.8, 5-{4-Carbamoyl-5-[3-(4-pentylphenyl)ureido]-1H-imidazol-2-ylmethyl}furan-2-carboxylic acid]"
2,28 µM,"CCCc1ccc(C(=O)Nc2[nH]c(Cc3ccc(C(=O)O)o3)nc2C(N)=O)cc1 [Example 6, 5-[4-Carbamoyl-5-(4-propylbenzoylamino)-1H-imidazol-2-ylmethyl]furan-2-carboxylic acid]"
3,23 µM,"CC(C)(C)c1ccc(C(=O)Nc2[nH]c(Cc3ccc(C(=O)O)o3)nc2C(N)=O)cc1 [Example 6.8, 5-[5-(4-tert-Butylbenzoylamino)-4-carbamoyl-1H-imidazol-2-ylmethyl]furan-2-carboxylic acid]"
